Assay results: ChEMBL document CHEMBL4371026, “Prodrugs of the cancer cell selective anti-cancer agent (Z)-2-(1H-indol-3-yl)-3-(isoquinolin-5-yl)acrylonitrile (A131) are orally efficacious in a mouse model of resistant colon cancer” (Bioorg Med Chem Lett, 2019)
Activity calls are given as the source filed them. No cut-off for these calls is given here.

Experiments:
HCT-15 [1] = experiment: Anticancer activity against paclitaxel-resistant human HCT15 cells xenografted in BALB/c athymic mouse assessed as tumor growth inhibition at 40 mg/kg, ip administered twice a day for 12 days; type: functional, organism-based
HCT-15 [2] = experiment: Anticancer activity against paclitaxel-resistant human HCT15 cells xenografted in BALB/c athymic mouse assessed as cell death at 40 mg/kg, ip or 80 mg/kg, po administered twice a day for 12 days by TUNEL staining based assay; type: functional, organism-based
HCT-15 [3] = experiment: Anticancer activity against paclitaxel-resistant human HCT15 cells xenografted in BALB/c athymic mouse assessed as formation of misaligned chromosomes with multipolar spindles at 40 mg/kg, ip or 80 mg/kg, po administered twice a day for 12 days by immunohistochemical analysis; type: functional, organism-based
BJ [4] = experiment: Induction of mitosis in transformed human BJ cells assessed as increase in pH3 Ser10 expression at 5 uM after 24 hrs by Western blot analysis relative to control; type: functional
BJ [5] = experiment: Induction of autophagy in transformed human BJ cells assessed as increase in LC3-2 to LC3-1 ratio at 5 uM after 24 hrs by Western blot analysis relative to control; type: functional
[6] = Prodrug conversion in pH 7.4 10% FBS assessed as formation of A131 measured at 1 hr by LC-MS/MS analysis relative to parent compound; type: ADME; settings: cattle, pH 7.4, 1 h
[7] = Prodrug conversion in pH 7.4 10% FBS assessed as formation of A131 measured at 2 hrs by LC-MS/MS analysis relative to parent compound; type: ADME; settings: cattle, pH 7.4, 2 h
[8] = Prodrug conversion in pH 7.4 10% FBS assessed as formation of A131 measured at 3 hrs by LC-MS/MS analysis relative to parent compound; type: ADME; settings: cattle, pH 7.4, 3 h
[9] = Prodrug conversion in pH 7.4 10% FBS assessed as formation of A131 measured at 6 hrs by LC-MS/MS analysis relative to parent compound; type: ADME; settings: cattle, pH 7.4, 6 h
[10] = Prodrug conversion in pH 7.4 10% FBS assessed as formation of A131 by measuring apparent half life; type: ADME; settings: cattle
[11] = Prodrug conversion in pH 7.4 phosphate buffer saline assessed as formation of A131 by measuring apparent half life; type: ADME
[12] = Prodrug conversion in human plasma assessed as formation of A131 by measuring apparent half life; type: ADME, cell-free
[13] = Prodrug conversion in mouse plasma assessed as formation of A131 by measuring apparent half life; type: ADME, cell-free
[14] = Half life in simulated gastric fluid TS; type: ADME
[15] = Half life in simplified simulated gastric fluid; type: ADME
[16] = Stability in simulated gastric fluid TS assessed as parent compound remaining at 24 hrs; type: ADME; settings: read-out: Stability
[17] = Stability in simplified simulated gastric fluid assessed as parent compound remaining at 24 hrs; type: ADME; settings: read-out: Stability
[18] = Stability in human plasma assessed as compound hydrolysis measured within 15 mins; type: ADME, cell-free; settings: read-out: Drug degradation
[19] = Stability in acidic pH assessed as compound hydrolysis; type: physicochemical
[20] = Solubility of the compound in 10%DMSO/50%PEG400/40%H2O; type: physicochemical
HCT-15 [21] = experiment: Anticancer activity against paclitaxel-resistant human HCT15 cells xenografted in BALB/c athymic mouse assessed as tumor growth inhibition at 80 mg/kg, po administered twice a day for 12 days relative to control; type: functional; settings: HCT-15, po, 288 h, read-out: TGI
HCT-15 [22] = experiment: Anticancer activity against paclitaxel-resistant human HCT15 cells xenografted in BALB/c athymic mouse assessed as tumor volume at 40 mg/kg, ip administered twice a day for 12 days measured on day 1 (reference value: 110 +/- 11 mm3); type: functional
HCT-15 [23] = experiment: Anticancer activity against paclitaxel-resistant human HCT15 cells xenografted in BALB/c athymic mouse assessed as tumor volume at 40 mg/kg, ip administered twice a day for 12 days measured on day 3 (reference value: 180 +/- 36 mm3); type: functional
HCT-15 [24] = experiment: Anticancer activity against paclitaxel-resistant human HCT15 cells xenografted in BALB/c athymic mouse assessed as tumor volume at 40 mg/kg, ip administered twice a day for 12 days measured on day 5 (reference value: 329 +/- 45 mm3); type: functional
HCT-15 [25] = experiment: Anticancer activity against paclitaxel-resistant human HCT15 cells xenografted in BALB/c athymic mouse assessed as tumor volume at 40 mg/kg, ip administered twice a day for 12 days measured on day 7 (reference value: 495 +/- 109 mm3); type: functional
HCT-15 [26] = experiment: Anticancer activity against paclitaxel-resistant human HCT15 cells xenografted in BALB/c athymic mouse assessed as tumor volume at 40 mg/kg, ip administered twice a day for 12 days measured on day 9 (reference value: 546 +/- 87 mm3); type: functional
HCT-15 [27] = experiment: Anticancer activity against paclitaxel-resistant human HCT15 cells xenografted in BALB/c athymic mouse assessed as tumor volume at 40 mg/kg, ip administered twice a day for 12 days measured on day 12 (reference value: 779 +/- 144 mm3); type: functional
HCT-15 [28] = experiment: Anticancer activity against paclitaxel-resistant human HCT15 cells xenografted in BALB/c athymic mouse assessed as tumor volume at 80 mg/kg, po administered twice a day for 12 days measured on day 1 (reference value: 110 +/- 11 mm3); type: functional
HCT-15 [29] = experiment: Anticancer activity against paclitaxel-resistant human HCT15 cells xenografted in BALB/c athymic mouse assessed as tumor volume at 80 mg/kg, po administered twice a day for 12 days measured on day 3 (reference value: 180 +/- 36 mm3); type: functional
HCT-15 [30] = experiment: Anticancer activity against paclitaxel-resistant human HCT15 cells xenografted in BALB/c athymic mouse assessed as tumor volume at 80 mg/kg, po administered twice a day for 12 days measured on day 5 (reference value: 329 +/- 45 mm3); type: functional
HCT-15 [31] = experiment: Anticancer activity against paclitaxel-resistant human HCT15 cells xenografted in BALB/c athymic mouse assessed as tumor volume at 80 mg/kg, po administered twice a day for 12 days measured on day 7 (reference value: 495 +/- 109 mm3); type: functional
HCT-15 [32] = experiment: Anticancer activity against paclitaxel-resistant human HCT15 cells xenografted in BALB/c athymic mouse assessed as tumor volume at 80 mg/kg, po administered twice a day for 12 days measured on day 9 (reference value: 546 +/- 87 mm3); type: functional
HCT-15 [33] = experiment: Anticancer activity against paclitaxel-resistant human HCT15 cells xenografted in BALB/c athymic mouse assessed as tumor volume at 80 mg/kg, po administered twice a day for 12 days measured on day 12 (reference value: 779 +/- 144 mm3); type: functional

## CN1CCN(CC(=O)n2cc(/C(C#N)=C/c3cccc4cnccc34)c3ccccc32)CC1 [listing 1 of 2 here]
HCT-15 [1]
  TGI: Active
HCT-15 [2]
  Activity: Active
HCT-15 [3]
  Activity: Active

## CS(=O)(=O)n1cc(/C(C#N)=C/c2cccc3cnccc23)c2ccccc21
BJ [4]
  fold change (FC): 0.4
BJ [5]
  fold change (FC): 0.8

## N#C/C(=C\c1cccc2cnccc12)c1cn(C(=O)CCN)c2ccccc12
BJ [4]
  fold change (FC): 2.1
BJ [5]
  fold change (FC): 4.1

## CN1CCN(CC(=O)n2cc(/C(C#N)=C/c3cccc4cnccc34)c3ccccc32)CC1 [listing 2 of 2 here]
BJ [4]
  fold change (FC): 11.8
BJ [5]
  fold change (FC): 5
[6]
  fold change (FC): 4.68
[7]
  fold change (FC): 7.51
[8]
  fold change (FC): 8.39
[9]
  fold change (FC): 8.84
[10]
  t1/2(app): 0.9 h
[11]
  t1/2(app): 5.3 h
[12]
  t1/2(app): 3.42 min
[13]
  t1/2(app): 5.28 min
[14]
  half-life: 24 h
[15]
  half-life: 24 h
[16]
  remaining at 24 h: 50%
[17]
  remaining at 24 h: 50%
[18]
  metabolised at 0.25 h: > 90%
[19]
  Stability: Stable

## CC(C)(C)OC(=O)N1CCC(C(=O)n2cc(/C(C#N)=C/c3cccc4cnccc34)c3ccccc32)CC1
BJ [4]
  fold change (FC): 16.2
BJ [5]
  fold change (FC): 5.2

## CN1CCN(C(=O)Cn2cc(/C(C#N)=C/c3cccc4cnccc34)c3ccccc32)CC1
BJ [4]
  fold change (FC): 1.3
BJ [5]
  fold change (FC): 1.9

## Cn1cc(/C(C#N)=C/c2cccc3cnccc23)c2ccccc21
BJ [4]
  fold change (FC): 1.1
BJ [5]
  fold change (FC): 1.6

## CN1CCN(CC(=O)n2cc(/C(C#N)=C/c3cccc4cnccc34)c3ccccc32)CC1.O=C(O)C(F)(F)F
[20]
  solubility: 8000 µg/mL
HCT-15 [21]
  inhibition in vivo at 80 mg/kg: 75.8 to 76%
HCT-15 [22]
  Activity: 100 mm3
HCT-15 [23]
  Activity: 109 mm3
HCT-15 [24]
  Activity: 199 mm3
HCT-15 [25]
  Activity: 171 mm3
HCT-15 [26]
  Activity: 196 mm3
HCT-15 [27]
  Activity: 244 mm3
HCT-15 [28]
  Activity: 96 mm3
HCT-15 [29]
  Activity: 95 mm3
HCT-15 [30]
  Activity: 143 mm3
HCT-15 [31]
  Activity: 165 mm3
HCT-15 [32]
  Activity: 209 mm3
HCT-15 [33]
  Activity: 258 mm3
